Read-outs that look alike come from different tables or passages of the source. Peptide text beside a SMILES is read from it. * marks the point of attachment. Cbz = O=C(OCc1ccccc1)*
Experiments:
26S proteasome = molecular target: T1, 26S proteasome (Homo sapiens, UniProt P28074); experiment: Chymotrypsin-like 26S proteasome function in crude cell extracts (SucLLVY-AMC fluorogenic peptide assay); assay type: biochemical; details: for Effect on 26S proteasome function: data not shown; for Chymotryptic 26S Proteasome Activity in Lysates from ECV 304 Cells: activity relative to 0 μM = 1, mean ± SEM
T1 construct: endogenous in cells; host or cells: ECV304 cells, crude extract
T1 sequence (P28074 60-263): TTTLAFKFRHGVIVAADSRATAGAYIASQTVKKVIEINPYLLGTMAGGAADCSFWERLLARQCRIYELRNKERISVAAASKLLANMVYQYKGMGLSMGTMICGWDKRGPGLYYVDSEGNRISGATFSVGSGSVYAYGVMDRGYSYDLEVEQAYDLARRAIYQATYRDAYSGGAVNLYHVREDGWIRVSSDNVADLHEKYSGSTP
Method: (§1) 20S and 26S proteasome function was measured as described previously (20). Briefly, cells were washed with PBS, then with buffer I (50 mM Tris, pH 7.4, 2 mM DTT, 5 mM MgCl2, 2 mM ATP), and pelleted by centrifugation. Glass beads and homogenization buffer (50 mM Tris, pH 7.4, 1 mM DTT, 5 mM MgCl2, 2 mM ATP, 250 mM sucrose) were added and vortexed for 1 minute. Beads and cell debris were removed by centrifugation at 1,000 × g for 5 minutes and 10,000 × g for 20 minutes. Protein concentration was determined by the BCA protocol (Pierce). One hundred μg protein of each sample was diluted with buffer I to a final volume of 1000 μl and the fluorogenic proteasome substrate SucLLVY-7-amido-4-methylcoumarin (chymotrypsin-like, Sigma) was added in a final concentration of 80 μM in 1% DMSO. To access 20S function, buffer I was replaced by an ATP-free buffer containing SDS (20 mM HEPES, pH 7.8; 0.5 mM EDTA, 0.03% SDS). Cleavage activity was monitored continuously by detection of free 7-amido-4-methylcoumarin using a fluorescence plate reader (Gemini, Molecular Devices) at 380/460 nm and 37°C. As controls for drug studies, 7-amido-4-methylcoumarin (AMC, 2 μM) was incubated with drugs in buffer I without cell extracts and measurements of proteasome function were corrected when necessary.

20S proteasome = molecular target: T2, 20S proteasome (Homo sapiens, UniProt P28074); experiment: Chymotrypsin-like 20S proteasome function in crude cell extracts (ATP-free buffer with SDS, SucLLVY-AMC); assay type: biochemical
T2 construct: Chymotryptic 20S Proteasome Activity in Lysates from ECV 304 Cells; endogenous in cells; host or cells: ECV304 cells, crude extract
T2 sequence (P28074 60-263): T1 sequence (P28074 60-263)
Method: as §1

[1] = test system: proteasome function (Ub-GFP accumulation) in ECV304/10 cells; experiment: Proteasome function in living ECV304/10 cells stably transfected with Ub-R-GFP fusion protein (fluorescence microscopy); assay type: cell-based, human; details: 100 μM
Method: ECV304 cells were plated at a density of 250.000 cells/well into six-well plates twelve hours before transfection. Cells were transfected with 5 μg of a plasmid (pEGFP-N1, Clontech) coding for an ubiquitin (Ub)-R-GFP fusion protein under control of a CMV promoter (a kind gift from Dr. M. Masucci, Karolinska Institute, Sweden) using the Superfect transfection kit (Qiagen) and following the manufacturer's instructions. Transfected cells were maintained in DMEM (10 % FSC, 1 % penicillin/streptomycin) supplemented with 500 μg/ml G418 (Sigma) and clones were obtained.

KB 8.5 cells = experiment: Apoptosis / morphological toxicity of KB 8.5 cells treated with MG-132; assay type: cell-based, human
Description: The human epitheloid carcinoma cell line KB 8-5 is a well-characterized tumor cell line that over-expresses mdr-1 with associated MDR.

P-glycoprotein = molecular target: T3, P-glycoprotein (Homo sapiens, UniProt P08183); experiment: Drug accumulation assay: daunorubicin fluorescence in P-gp overexpressing KB 8-5 cells; assay type: cell-based; details: different doses of MG-132 (0, 6.25, 12.5, 25, 50 μM), daunorubicin 10 μM, 45 minutes
T3 construct: accumulation of daunorubicin in KB 8-5 cells that overexpress P-glycoprotein; endogenous in cells; host or cells: KB 8.5 (KB 8-5) cells, maintained under colchicine selection
T3 sequence (P08183 whole entry): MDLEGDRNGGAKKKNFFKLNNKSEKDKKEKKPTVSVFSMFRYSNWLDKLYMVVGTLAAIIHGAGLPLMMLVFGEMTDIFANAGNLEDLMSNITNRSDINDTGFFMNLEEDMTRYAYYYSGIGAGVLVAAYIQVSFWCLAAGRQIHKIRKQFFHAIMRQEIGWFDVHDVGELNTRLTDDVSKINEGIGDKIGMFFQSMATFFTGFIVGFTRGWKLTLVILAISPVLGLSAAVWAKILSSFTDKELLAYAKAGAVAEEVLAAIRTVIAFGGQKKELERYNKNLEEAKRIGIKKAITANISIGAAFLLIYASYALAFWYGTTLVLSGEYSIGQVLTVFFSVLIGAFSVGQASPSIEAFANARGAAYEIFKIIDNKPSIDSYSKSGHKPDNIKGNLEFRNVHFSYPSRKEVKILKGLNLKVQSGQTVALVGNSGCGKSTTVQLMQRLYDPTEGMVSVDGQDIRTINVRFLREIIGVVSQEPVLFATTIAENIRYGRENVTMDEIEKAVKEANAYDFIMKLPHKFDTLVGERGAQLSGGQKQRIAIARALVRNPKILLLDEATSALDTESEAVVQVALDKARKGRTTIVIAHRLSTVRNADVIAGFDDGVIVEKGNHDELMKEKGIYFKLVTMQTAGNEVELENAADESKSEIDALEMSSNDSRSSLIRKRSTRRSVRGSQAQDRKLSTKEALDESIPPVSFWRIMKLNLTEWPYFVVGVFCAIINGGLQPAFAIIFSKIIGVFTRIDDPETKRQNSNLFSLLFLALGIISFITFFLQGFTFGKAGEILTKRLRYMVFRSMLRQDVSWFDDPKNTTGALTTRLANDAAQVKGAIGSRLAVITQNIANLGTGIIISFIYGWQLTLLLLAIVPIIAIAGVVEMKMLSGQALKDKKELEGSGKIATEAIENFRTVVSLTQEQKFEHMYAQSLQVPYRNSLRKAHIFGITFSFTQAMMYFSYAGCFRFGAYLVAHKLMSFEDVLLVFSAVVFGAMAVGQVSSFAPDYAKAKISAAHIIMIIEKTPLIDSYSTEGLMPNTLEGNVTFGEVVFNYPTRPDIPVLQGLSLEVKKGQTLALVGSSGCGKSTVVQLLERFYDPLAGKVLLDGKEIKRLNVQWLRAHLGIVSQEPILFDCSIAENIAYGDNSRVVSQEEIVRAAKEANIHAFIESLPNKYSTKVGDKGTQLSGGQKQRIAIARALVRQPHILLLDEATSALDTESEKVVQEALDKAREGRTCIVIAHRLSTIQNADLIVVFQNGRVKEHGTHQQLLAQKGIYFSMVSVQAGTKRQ
Method: Every 21 days P-gp-positive KB 8.5 cells were selected by addition of colchicine (10 ng/ml, Sigma). 24 hours before drug treatment cells were plated into 6-well plates (Costar) at a density of 10^6 cells/well.
Growth medium on cells was replaced by PBS for 40 minutes at 37°C. […] After drug treatment, the cells were washed twice with PBS, re-suspended in either 4 ml lysis buffer (0.3 M sucrose, 0.05 mM EGTA pH 8.0, 60 mM KCl, 15 mM NaCl, 15 mM HEPES pH 7.5, 150 μM spermine, 50 μM spermidine) containing 20 μl triton X-100 for nuclear isolation or 400 μl of 50% ethanol in 1 M HCl (v/v) for whole cell lysis. For the latter, cells were vortexed and diluted with water to a final volume of 1.4 ml. The cells in lysis buffer were mixed and left on ice for 15 minutes before centrifuging. The nuclei (pellet) were then vortexed with 400 μl HCl/isopropanol.

ECV304 cells = experiment: Drug accumulation assay: doxorubicin in cytoplasm and nuclear fraction of ECV304 cells; assay type: cell-based, human; details: MG-132 25 μM
Method: Stock solutions of all cytotoxic drugs were obtained from the hospital pharmacy of the University Clinic Freiburg. […] Control cells were subjected to DMSO treatment alone (0.5 %).
Growth medium on cells was replaced by PBS for 40 minutes at 37°C. This was replaced by fresh PBS containing daunorubicin or doxorubicin and MG-132 or anthracyclines alone. […] After drug treatment, the cells were washed twice with PBS, re-suspended in either 4 ml lysis buffer (0.3 M sucrose, 0.05 mM EGTA pH 8.0, 60 mM KCl, 15 mM NaCl, 15 mM HEPES pH 7.5, 150 μM spermine, 50 μM spermidine) containing 20 μl triton X-100 for nuclear isolation or 400 μl of 50% ethanol in 1 M HCl (v/v) for whole cell lysis. For the latter, cells were vortexed and diluted with water to a final volume of 1.4 ml. The cells in lysis buffer were mixed and left on ice for 15 minutes before centrifuging. The nuclei (pellet) were then vortexed with 400 μl HCl/isopropanol.

[2] = 6.25 μM, activity relative to 0 μM = 1, mean ± SEM
[3] = 25 μM, activity relative to 0 μM = 1, mean ± SEM
[4] = 50 μM, activity relative to 0 μM = 1, mean ± SEM
[5] = 100 μM, activity relative to 0 μM = 1, mean ± SEM
[6] = crude extracts of ECV304 cells, 0 – 100 μM drug, read-out: IC50, inhibition of 26S proteasome function

CC[C@@]1(O)C(=O)OCc2c1cc1n(c2=O)Cc2cc3c(CN(C)C)c(O)ccc3nc2-1 [Topotecan, topotecan]
Effect on 26S proteasome function (26S proteasome; crude extracts of ECV304 cells): no measurable effect

COc1cccc2c1C(=O)c1c(O)c3c(c(O)c1C2=O)C[C@@](O)(C(=O)CO)C[C@@H]3O[C@H]1C[C@H](N)[C@H](O)[C@H](C)O1 [doxorubicin]
IC50 (20S proteasome): 5.8 µM
GFP accumulation indicating inhibition of proteasome function in living cells ([1]; ECV304/10 cells, 12 hours): GFP accumulated throughout the cytoplasm
IC50 (26S proteasome): 65.5 µM

COc1cccc2c1C(=O)c1c(O)c3c(c(O)c1C2=O)C[C@@](O)(C(C)=O)C[C@@H]3O[C@H]1C[C@H](N)[C@H](O)[C@H](C)O1 [daunorubicin]
Chymotryptic 20S Proteasome Activity in Lysates from ECV 304 Cells (20S proteasome): 0.64 ± 0.07 n.s.
Chymotryptic 20S Proteasome Activity in Lysates from ECV 304 Cells (20S proteasome; [2]): 0.62 ± 0.19 n.s.
Chymotryptic 20S Proteasome Activity in Lysates from ECV 304 Cells (20S proteasome; [3]): 0.81 ± 0.05 n.s.
Chymotryptic 20S Proteasome Activity in Lysates from ECV 304 Cells (20S proteasome; [4]): 0.95 ± 0.04 n.s.
Chymotryptic 20S Proteasome Activity in Lysates from ECV 304 Cells (20S proteasome; [5]): 1.05 ± 0.1 n.s.
Inhibition of 20S proteasome function (20S proteasome; crude extracts of ECV304 cells, up to 100 μM): not
GFP accumulation indicating proteasome inhibition in living cells ([1]; ECV304 Ub-GFP cells, 16 h (Figure 2 legend)): accumulation of GFP throughout the cytoplasm
Chymotryptic 26S Proteasome Activity in Lysates from ECV 304 Cells (26S proteasome; 6.25 μM): 0.85 ± 0.05
Chymotryptic 26S Proteasome Activity in Lysates from ECV 304 Cells (26S proteasome; 12.5 μM): 0.53 ± 0.11
Chymotryptic 26S Proteasome Activity in Lysates from ECV 304 Cells (26S proteasome; 25 μM): 0.22 ± 0.09
Chymotryptic 26S Proteasome Activity in Lysates from ECV 304 Cells (26S proteasome; 50 μM): 0.12 ± 0.06
Chymotryptic 26S Proteasome Activity in Lysates from ECV 304 Cells (26S proteasome; 100 μM): 0.11 ± 0.06
IC50 (26S proteasome; [6]): 13.7 µM

CC(=O)[C@]1(O)Cc2c(O)c3c(c(O)c2[C@@H](O[C@H]2C[C@H](N)[C@H](O)[C@H](C)O2)C1)C(=O)c1ccccc1C3=O [idarubicin]
Chymotryptic 20S Proteasome Activity in Lysates from ECV 304 Cells (20S proteasome; [2]): 0.67 ± 0.07
Chymotryptic 20S Proteasome Activity in Lysates from ECV 304 Cells (20S proteasome; 12.5 μM, activity relative to 0 μM = 1, mean ± SEM): 0.67 ± 0.08
Chymotryptic 20S Proteasome Activity in Lysates from ECV 304 Cells (20S proteasome; [3]): 0.69 ± 0.05
Chymotryptic 20S Proteasome Activity in Lysates from ECV 304 Cells (20S proteasome; [4]): 0.67 ± 0.05
Chymotryptic 20S Proteasome Activity in Lysates from ECV 304 Cells (20S proteasome; [5]): 0.49 ± 0.11
IC50 (20S proteasome; crude extracts of ECV304 cells): 92 µM
Chymotryptic 26S Proteasome Activity in Lysates from ECV 304 Cells (26S proteasome; 6.25 μM): 0.97 ± 0.03 n.s.
Chymotryptic 26S Proteasome Activity in Lysates from ECV 304 Cells (26S proteasome; 12.5 μM): 0.96 ± 0.02 n.s.
Chymotryptic 26S Proteasome Activity in Lysates from ECV 304 Cells (26S proteasome; 25 μM): 0.79 ± 0.12 n.s.
Chymotryptic 26S Proteasome Activity in Lysates from ECV 304 Cells (26S proteasome; 50 μM): 0.28 ± 0.09
Chymotryptic 26S Proteasome Activity in Lysates from ECV 304 Cells (26S proteasome; 100 μM): 0.1 ± 0.06
IC50 (26S proteasome; [6]): 38.6 µM

Nc1ccn([C@@H]2O[C@H](CO)[C@@H](O)C2(F)F)c(=O)n1 [gemcitabine]
Effect on 26S proteasome function (26S proteasome; crude extracts of ECV304 cells): no measurable effect

COc1cccc2c1C(=O)c1c(O)c3c(c(O)c1C2=O)C[C@@](O)(C(=O)CO)C[C@@H]3O[C@H]1C[C@H](N)[C@@H](O)[C@H](C)O1 [epirubicin]
IC50 (20S proteasome): 12.5 µM
IC50 (26S proteasome): 29.2 µM

CC(C)C[C@@H](C=O)NC(=O)[C@H](CC(C)C)NC(=O)[C@H](CC(C)C)NC(=O)OCc1ccccc1 [MG-132] (Cbz-Leu-Leu-Leu-aldehyde)
Morphological signs of toxicity (KB 8.5 cells; KB 8-5 cells, 50 μM, 45 minutes of incubation): no morphological signs of toxicity
Induction of apoptosis (KB 8.5 cells; KB 8.5 cells, 3.125 to 50 μM, within 24 hours, preliminary experiments): induced apoptosis
Accumulation of daunorubicin in KB 8-5 cells (P-glycoprotein): increased, dose-dependent accumulation of daunorubicin
Uptake of doxorubicin in the cytoplasm and in the nuclear fraction (ECV304 cells): increased uptake of doxorubicin

CO[C@@]12[C@H](COC(N)=O)C3=C(C(=O)C(C)=C(N)C3=O)N1C[C@@H]1N[C@@H]12 [mitomycin C]
Effect on 26S proteasome function (26S proteasome; crude extracts of ECV304 cells): no measurable effect

Source: publication PMC1242219, “Anthracyclines, proteasome activity and multi-drug-resistance” (BMC Cancer, 2005)
